The record followed here is patent EP0810221A1 (MITSUBISHI CHEMICAL CORPORATION, priority 1995, dated 1996).

The target in one assay is T1, m-Calpain (Rattus norvegicus, UniProt Q07009).
T1 construct: m-Calpain was purified from brains of rats; from tissue; host or cells: rat brain
T1 sequence (Q07009 20-700 limits assumed): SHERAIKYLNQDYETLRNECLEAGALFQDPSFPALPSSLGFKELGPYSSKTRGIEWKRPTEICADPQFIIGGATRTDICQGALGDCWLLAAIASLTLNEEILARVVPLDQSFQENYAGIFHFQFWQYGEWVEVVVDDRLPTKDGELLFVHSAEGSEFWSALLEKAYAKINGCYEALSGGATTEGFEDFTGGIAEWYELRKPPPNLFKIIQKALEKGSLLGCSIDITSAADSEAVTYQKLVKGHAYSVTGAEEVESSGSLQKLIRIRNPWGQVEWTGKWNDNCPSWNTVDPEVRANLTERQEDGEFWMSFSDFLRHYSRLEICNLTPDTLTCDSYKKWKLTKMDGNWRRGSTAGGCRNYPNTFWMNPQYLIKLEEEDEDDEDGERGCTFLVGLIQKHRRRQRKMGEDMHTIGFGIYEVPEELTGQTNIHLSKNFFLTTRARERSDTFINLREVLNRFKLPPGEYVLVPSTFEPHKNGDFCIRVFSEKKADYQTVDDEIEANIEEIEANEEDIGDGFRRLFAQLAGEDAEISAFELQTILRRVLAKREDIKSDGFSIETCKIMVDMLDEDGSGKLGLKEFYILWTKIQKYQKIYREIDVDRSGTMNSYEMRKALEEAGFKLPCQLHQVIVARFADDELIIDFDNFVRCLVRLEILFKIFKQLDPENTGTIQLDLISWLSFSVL
T1 sequence (Q64537 1-270 partner): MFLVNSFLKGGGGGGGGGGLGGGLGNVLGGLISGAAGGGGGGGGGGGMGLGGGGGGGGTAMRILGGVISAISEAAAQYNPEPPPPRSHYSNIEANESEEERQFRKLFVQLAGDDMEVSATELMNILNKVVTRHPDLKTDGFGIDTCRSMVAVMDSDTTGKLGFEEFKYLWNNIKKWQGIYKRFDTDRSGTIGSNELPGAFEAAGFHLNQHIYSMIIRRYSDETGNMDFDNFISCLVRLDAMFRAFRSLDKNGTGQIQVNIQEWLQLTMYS
Kind of assay: Inhibitory activity against calpain (m-Calpain purified from brains of rats). In kind it is biochemical. As for the experimental part: m-Calpain was purified from brains of rats according to a method described in a literature (Journal of Biological Chemistry, Vol. 259, p. 3210, 1984), and the inhibitory activity was determined in a manner according to a published method (Journal of Biological Chemistry, Vol. 259, p. 12489, 1984).

In assay [1] the target is T2, cathepsin B (Sigma, C-6286) (Bos taurus, UniProt P07688).
T2 construct: purchased Sigma C-6286
Kind of assay: Inhibitory activity against cathepsin B. In kind it is biochemical. Particulars: Inhibitory activity against cathepsin B (Table-5). As for the experimental part: Inhibitory activity against cathepsin B (Sigma, C-6286) was determined according to a method described in a literature (Biochemical Journal, Vol. 201, p. 189, 1982).

[2] abbreviates: Inhibitory activity against calpain (Table-6).
Setting [3] is: Inhibitory activity against calpain (continuation of Table-6).

Turning to `CC(C)C[C@H](NS(=O)(=O)c1ccccc1)C(=O)N[C@H]1CCOC1O` (stereo partly drawn) [Example 1, (3S)-3-((S)-4-methyl-2-phenylsulfonylaminovalerylamino)-2-tetrahydrofuranol], the results for the IC50 (at m-Calpain (setting [2]); in assay [1]) were 0.62 µM and 0.42 µM, respectively.

On to `CCC[C@H](NC(=O)OCc1ccccc1)C(=O)N[C@H]1CCOC1O` (stereo partly drawn) [Example 4, (3S)-3-((S)-2-benzyloxycarbonylaminovalerylamino)-2-tetrahydrofuranol], for which the IC50 (as a rule, the midpoint of a concentration-inhibition curve) worked out at 0.9 µM at m-Calpain (setting [2]) and 0.7 µM in assay [1].

Consider `CC(C)[C@H](NC(=O)OCc1ccccc1)C(=O)NC1CCOC1O` (stereo partly drawn) [Example 5, 3-((S)-2-benzyloxycarbonylamino-3-methylbutyrylamino)-2-tetrahydrofuranol], for which the half-maximal inhibitory concentration (IC50) against m-Calpain (setting [2]) was 2.3 µM; in assay [1], 0.98 µM.

In the case of `CCCC[C@H](NC(=O)OCc1ccccc1)C(=O)N[C@H]1CCOC1O` (stereo partly drawn) [Example 6, (3S)-3-((S)-2-benzyloxycarbonylaminohexanoylamino)-2-tetrahydrofuranol], the IC50 amounted to 2.3 µM at m-Calpain (setting [2]) and 1.35 µM in assay [1].

In the case of `CCC(C)[C@H](NC(=O)OCc1ccccc1)C(=O)N[C@H]1CCOC1O` (stereo partly drawn) [Example 7, (3S)-3-((2S)-2-benzyloxycarbonylamino-3-methylvalerylamino)-2-tetrahydrofuranol], the figures for the IC50 (at m-Calpain (setting [2]); in assay [1]) were 2.4 µM and 0.9 µM, respectively.

On to `COC(=O)N[C@@H](CC(C)C)C(=O)NC1CCOC1O` (stereo partly drawn) [Example 9, 3-((S)-2-methoxycarbonylamino-4-methylvalerylamino)-2-tetrahydrofuranol], for which the 50% inhibitory concentration (IC50) on m-Calpain (setting [2]) was determined as 1.55 µM.

Consider `CC(C)C[C@H](NC(=O)OC(C)(C)C)C(=O)N[C@H]1CCOC1O` (stereo partly drawn) [Example 10, (3S)-3-((S)-2-tert-butoxycarbonylamino-4-methylvalerylamino)-2-tetrahydrofuranol], for which the concentration for half-maximal inhibition (IC50) was 0.96 µM at m-Calpain (setting [2]) and 0.37 µM in assay [1].

Take `CC(C)COC(=O)N[C@@H](CC(C)C)C(=O)N[C@H]1CCOC1O` (stereo partly drawn) [Example 11, (3S)-3-((S)-2-isobutoxycarbonylamino-4-methylvalerylamino)-2-tetrahydrofuranol]: the half-inhibitory concentration (IC50) against m-Calpain (setting [2]) turned out to be 1.1 µM; in assay [1], 2.15 µM.

In the case of `CC(C)C[C@H](NC(=O)OCC1CCCCC1)C(=O)N[C@H]1CCOC1O` (stereo partly drawn) [Example 12, (3S)-3-((S)-2-cyclohexylmethoxycarbonylamino-4-methylvalerylamino)-2-tetrahydrofuranol], the 50% inhibitory concentration (IC50) stood at 0.65 µM at m-Calpain (setting [2]) and 1.2 µM in assay [1].

On to `CC(C)C[C@H](NC(=O)OCc1ccccc1)C(=O)N[C@H]1CCOC1O` (stereo partly drawn) [Example 13, (3S)-3-((S)-2-benzyloxycarbonylamino-4-methylvalerylamino)-2-tetrahydrofuranol], for which the results for the half-inhibitory concentration (IC50) (against m-Calpain (setting [2]); in assay [1]) were 0.66 µM and 0.38 µM, respectively.

The compound `CC(C)C[C@H](NC(=O)OCC1c2ccccc2-c2ccccc21)C(=O)N[C@H]1CCOC1O` (stereo partly drawn) [Example 22, (3S)-3-{(S)-2-(9-fluorenylmethoxycarbonylamino)-4-methylvalerylamino}-2-tetrahydrofuranol] returned an IC50 at m-Calpain (setting [2]) of 0.41 µM. That is a sub-micromolar value.

`CC(C)C[C@H](NC(=O)OCC1CCCO1)C(=O)N[C@H]1CCOC1O` (stereo partly drawn) [Example 23, (3S)-3-((S)-4-methyl-2-tetrahydrofurfuryloxycarbonylaminovalerylamino)-2-tetrahydrofuranol]: the IC50 against m-Calpain (setting [2]) was determined as 1.1 µM.

On m-Calpain (setting [2]), `CC(C)C[C@H](NC(=O)OCc1cccc[n+]1[O-])C(=O)NC1CCOC1O` (stereo partly drawn) [Example 26, 3-{(S)-4-methyl-2-(2-pyridylmethoxycarbonylamino)valerylamino)-2-tetrahydrofuranol N-oxide] gave an IC50 of 1.4 µM.

With `CC(C)C[C@H](NC(=O)c1ccccc1F)C(=O)N[C@H]1CCOC1O` (stereo partly drawn) [Example 40, (3S)-3-{(S)-2-(2-fluorobenzoylamino)-4-metylvalerylamino}-2-tetrahydrofuranol], the IC50 in assay [1] came out at 1 µM.

`Cc1ccc(C(=O)N[C@@H](CC(C)C)C(=O)N[C@H]2CCOC2O)cc1` (stereo partly drawn) [Example 46, (3S)-3-{(S)-4-methyl-2-(4-methylbenzoylamino)valerylamino}-2-tetrahydorofuranol] came in with an IC50 in assay [1] of 0.27 µM.

On m-Calpain (setting [2]), `Cc1cccc(C)c1C(=O)N[C@@H](CC(C)C)C(=O)N[C@H]1CCOC1O` (stereo partly drawn) [Example 47, (3S)-3-{(S)-2-(2,6-dimethylbenzoylamino)-4-methylvalerylamino)-2-tetrahydrofuranol] registered an IC50 of 2.3 µM.

At m-Calpain (setting [2]), `Cc1cc(C)c(C(=O)N[C@@H](CC(C)C)C(=O)N[C@H]2CCOC2O)c(C)c1` (stereo partly drawn) [Example 49, (3S)-3-{(S)-4-methyl-2-(2,4,6-trimethylbenzoylamino)valerylamino}-2-tetrahydrofuranol] showed a concentration for half-maximal inhibition (IC50) of 0.68 µM. Against the preceding compound, the IC50 is about 3.4-fold lower.

Turning to `COc1ccccc1C(=O)N[C@@H](CC(C)C)C(=O)N[C@H]1CCOC1O` (stereo partly drawn) [Example 52, (3S)-3-{(S)-2-(2-methoxybenzoylamino)-4-methylvalerylamino)-2-tetrahydrofuranol], inhibition against m-Calpain (setting [2]) was half-maximal at 0.34 µM (IC50). Against the preceding compound, the IC50 is about 2-fold lower.

For `COc1ccc(C(=O)N[C@@H](CC(C)C)C(=O)N[C@H]2CCOC2O)c(OC)c1` (stereo partly drawn) [Example 54, (3S)-3-{(S)-2-(2,4-dimethoxybenzoylamino)-4-methylvalerylamino}-2-tetrahydrofuranol], the concentration for half-maximal inhibition (IC50) against m-Calpain (setting [2]) is 0.7 µM.

`CC(C)C[C@H](NC(=O)C1CCc2ccccc2O1)C(=O)N[C@H]1CCOC1O` (stereo partly shown) [Example 63] yielded an IC50 on m-Calpain (setting [3]) of 0.35 µM.

For `CC(C)C[C@H](NS(=O)(=O)c1ccc(F)cc1)C(=O)N[C@H]1CCOC1O` (stereo partly drawn) [Example 66, (3S)-3-{(S)-2-(4-fluorophenylsulfonylamino)-4-methylvalerylamino}-2-tetrahydrofuranol], at m-Calpain (setting [3]), the 50% inhibitory concentration (IC50) amounted to 0.6 µM.

At m-Calpain (setting [3]), `CC(C)C[C@H](NS(=O)(=O)c1ccc(Cl)cc1)C(=O)N[C@H]1CCOC1O` (stereo partly drawn) [Example 68, (3S)-3-{(S)-2-(4-chlorophenylsulfonylamino)-4-methylvalerylamino}-2-tetrahydrofuranol] gave a half-maximal inhibitory concentration (IC50) of 0.56 µM.

At m-Calpain (setting [3]), `CC(C)C[C@H](NS(=O)(=O)c1ccc(Br)cc1)C(=O)N[C@H]1CCOC1O` (stereo partly drawn) [Example 69, (3S)-3-{(S)-2-(4-bromophenylsulfonylamino)-4-methylvalerylamino}-2-tetrahydrofuranol] returned an IC50 of 0.62 µM.

`Cc1ccc(S(=O)(=O)N[C@@H](CC(C)C)C(=O)N[C@H]2CCOC2O)cc1` (stereo partly drawn) [Example 70, (3S)-3-{(S)-4-methyl-2-(4-methylphenylsulfonylamino)valerylamino}-2-tetrahydrofuranol] gave an IC50 against m-Calpain (setting [3]) of 0.5 µM.

On m-Calpain (setting [3]), `Cc1cc(C)c(S(=O)(=O)N[C@@H](CC(C)C)C(=O)N[C@H]2CCOC2O)c(C)c1` (stereo partly drawn) [Example 71, (3S)-3-{(S)-4-methyl-2-(2,4,6-trimethylphenylsulfonylamino)valerylamino}-2-tetrahydrofuranol] yielded an IC50 of 0.45 µM.

In turn, `CC(C)C[C@H](NS(=O)(=O)c1ccc(C(C)(C)C)cc1)C(=O)N[C@H]1CCOC1O` (stereo partly drawn) [Example 72, (3S)-3-{(S)-2-(4-tert-butylphenylsulfonylamino)-4-methylvalerylamino}-2-tetrahydrofuranol] had an IC50 on m-Calpain (setting [3]) of 0.39 µM.

With `COc1ccc(S(=O)(=O)N[C@@H](CC(C)C)C(=O)N[C@H]2CCOC2O)cc1` (stereo partly drawn) [Example 73, (3S)-3-{(S)-2-(4-methoxyphenylsulfonylamino)-4-methylvalerylamino}-2-tetrahydrofuranol], the IC50 against m-Calpain (setting [3]) was found to be 0.74 µM.

With `CC(C)C[C@H](NS(=O)(=O)c1cccc([N+](=O)[O-])c1)C(=O)N[C@H]1CCOC1O` (stereo partly drawn) [Example 74, (3S)-3-{(S)-4-methyl-2-(3-nitrophenylsulfonylamino)valerylamino}-2-tetrahydrofuranol], inhibition at m-Calpain (setting [3]) was half-maximal at 0.95 µM (IC50).

For the compound `O=C(N[C@@H](Cc1ccccc1)C(=O)N[C@H]1CCOC1O)OCc1ccccc1` (stereo partly drawn) [Example 78, (3S)-3-((S)-2-benzyloxycarbonylamino-3-phenylpropionylamino)-2-tetrahydrofuranol], the IC50 in assay [1] is 0.3 µM.

`CC(C)C[C@H](NS(=O)(=O)c1ccccc1)C(=O)N[C@H]1C(C)COC1O` (stereo partly drawn) [Example 80, (3S)-4-methyl-3-((S)-4-methyl-2-phenylsulfonylaminovalerylamino)-2-tetrahydrofuranol]: half-maximal inhibition at m-Calpain (setting [3]) (IC50) was put at 2.8 µM.

As to `CC(C)C[C@H](NC(=O)OCc1ccccc1)C(=O)N[C@H]1CCCOC1O` (stereo partly shown) [Example 81], the IC50 against m-Calpain (setting [3]) turned out to be 1.55 µM.
